From patent US5488035A (priority 1991, dated 1996)
Read-outs that look alike come from different tables or passages of the source. Bridge positions count the residues as written; N and C are the ends. Peptide text beside a SMILES is read from it.

Assays:
Type in all cases: cell-based
[1] = test system: FMO 001 (Fusarium moniliforme); experiment: Minimum inhibitory concentration; details: MIC Comparisons
Text: (§1) Decreasing tested concentrations of tachyplesin were against the preceding four organisms plus Fusarium moniliforme and Sclerotinia sclerotiorum to determine the minimum inhibitory concentration, and this was compared with other antimicrobial compounds.

[2] = test system: SSC 002 (Sclerotinia sclerotiorum); experiment: Minimum inhibitory concentration; details: MIC Comparisons
Text: as §1

[3] = test system: AFL 001 (Aspergillus flavus); experiment: Minimum inhibitory concentration; details: for MIC AFL 001: MIC Comparisons; for Dependence of MIC on buffer pH, AFL 001: buffer pHs of from 5.0 to 8.0
Procedure: Decreasing tested concentrations of tachyplesin were against the preceding four organisms plus Fusarium moniliforme and Sclerotinia sclerotiorum to determine the minimum inhibitory concentration, and this was compared with other antimicrobial compounds. Results were as follows:
The MICs of tachyplesin, defensin and hordothionin (μg/ml) were measured against FGR 008 and AFL 001 across a range of buffer pHs and ionic strengths to determine their suitability as plant antimicrobials under varying conditions.

[4] = test system: FGR 005 (Fusarium graminearum); details: MIC Comparisons
[5] = test system: FGR 008 (Fusarium graminearum)
[6] = test system: FMO 001 (Fusarium moniliforme); experiment: Antifungal activity score, decreasing concentrations; details: Example 2, scale 0-4
Procedure: (§2) The tachyplesin was used at a concentration of 100 μg/ml as determined by absorption spectrum was screened against four common plant pathogens in both crude and oxidized forms. Antifungal activity was scored on a scale of 0 to 4, with 0 being no inhibition observed relative to a water control, and 4 being complete inhibition. Two reps were done for each treatment. Results were as follows:
as §1

[7] = test system: SSC 002 (Sclerotinia sclerotiorum); experiment: as above; details: Example 2, scale 0-4
Procedure: as §2, §1

[8] = test system: SSC ascospores (Sclerotinia sclerotiorum); experiment: as above; details: Example 2, scale 0-4
Procedure: as §2, §1

[9] = test system: Aspergillus flavus, isolate 1 (AFL 001); experiment: as above; details: Example 2, scale 0-4
Procedure: as §2, §1

[10] = test system: Sclerotinia trifoliorum, isolate 1; experiment: Antifungal activity score; details: Example 1, 100 μg/ml
Procedure: The tachyplesin was used at a concentration of 100 μg/ml as determined by absorption spectrum was screened against four common plant pathogens in both crude and oxidized forms. Antifungal activity was scored on a scale of 0 to 4, with 0 being no inhibition observed relative to a water control, and 4 being complete inhibition. Two reps were done for each treatment.

[11] = test system: Fusarium graminearum, isolate 8 (FGR 008); details: Example 2, scale 0-4
[12] = test system: Fusarium graminearum, isolate 5 (FGR 005); details: for Score (antifungal activity), Fusarium graminearum, isolate 5: Example 1, 100 μg/ml; for Score FGR 005: Example 2, scale 0-4

## hordothionin
[1]; value before parentheses
  MIC FMO 001: 45 mg/L
[1]; value in parentheses
  MIC FMO 001: 9 µM
[2]; value before parentheses
  MIC SSC 002: 30 mg/L
[2]; value in parentheses
  MIC SSC 002: 6 µM
[3]; value before parentheses
  MIC AFL 001: 15 mg/L
[3]; value in parentheses
  MIC AFL 001: 3 µM
[3]
  Dependence of MIC on buffer pH, AFL 001: None of the antimicrobials showed a discernible trend or optimum
[4]; value before parentheses
  MIC FGR 005: 5 mg/L
[4]; value in parentheses
  MIC FGR 005: 1 µM
[5]; buffer pHs of from 5.0 to 8.0
  Dependence of MIC on buffer pH, FGR 008: None of the antimicrobials showed a discernible trend or optimum

## tachyplesin [tachyplesin crude]
[6]; 1.56 μg/ml (0.7 μM)
  Score FMO 001: 0.0
[6]; 3.13 μg/ml (1.4 μM)
  Score FMO 001: 0.0
[6]; 6.25 μg/ml (2.8 μM)
  Score FMO 001: 0.5
[6]; 12.5 μg/ml (5.6 μM)
  Score FMO 001: 1.25
[6]; 25 μg/ml (11.1 μM)
  Score FMO 001: 3.75
[6]; 50 μg/ml (22.2 μM)
  Score FMO 001: 4.0
[6]; 100 μg/ml (44.4 μM)
  Score FMO 001: 4.0
[7]; 1.56 μg/ml (0.7 μM)
  Score SSC 002: 0.0
[7]; 3.13 μg/ml (1.4 μM)
  Score SSC 002: 0.0
[7]; 6.25 μg/ml (2.8 μM)
  Score SSC 002: 0.0
[7]; 12.5 μg/ml (5.6 μM)
  Score SSC 002: 1.0
[7]; 25 μg/ml (11.1 μM)
  Score SSC 002: 4.0
[7]; 50 μg/ml (22.2 μM)
  Score SSC 002: 4.0
[7]; 100 μg/ml (44.4 μM)
  Score SSC 002: 4.0
[8]; 1.56 μg/ml (0.7 μM)
  Score SSC ascospores: 0.0
[8]; 3.13 μg/ml (1.4 μM)
  Score SSC ascospores: 0.0
[8]; 6.25 μg/ml (2.8 μM)
  Score SSC ascospores: 0.0
[8]; 12.5 μg/ml (5.6 μM)
  Score SSC ascospores: 4.0
[8]; 25 μg/ml (11.1 μM)
  Score SSC ascospores: 4.0
[8]; 50 μg/ml (22.2 μM)
  Score SSC ascospores: 4.0
[8]; 100 μg/ml (44.4 μM)
  Score SSC ascospores: 4.0
[9]; 1.56 μg/ml (0.7 μM)
  Score AFL 001: 0.0
[9]; 3.13 μg/ml (1.4 μM)
  Score AFL 001: 0.0
[9]; 6.25 μg/ml (2.8 μM)
  Score AFL 001: 0.0
[9]; 12.5 μg/ml (5.6 μM)
  Score AFL 001: 1.0
[9]; 25 μg/ml (11.1 μM)
  Score AFL 001: 1.5
[9]; 50 μg/ml (22.2 μM)
  Score AFL 001: 3.25
[9]; 100 μg/ml (44.4 μM)
  Score AFL 001: 3.5
[10]
  Score (antifungal activity), Sclerotinia trifoliorum, isolate 1: 4.0
[11]; 1.56 μg/ml (0.7 μM)
  Score FGR 008: 0.0
[11]; 3.13 μg/ml (1.4 μM)
  Score FGR 008: 0.0
[11]; 6.25 μg/ml (2.8 μM)
  Score FGR 008: 0.0
[11]; 12.5 μg/ml (5.6 μM)
  Score FGR 008: 3.75
[11]; 25 μg/ml (11.1 μM)
  Score FGR 008: 4.0
[11]; 50 μg/ml (22.2 μM)
  Score FGR 008: 4.0
[11]; 100 μg/ml (44.4 μM)
  Score FGR 008: 4.0
[12]
  Score (antifungal activity), Fusarium graminearum, isolate 5: 4.0
[12]; 1.56 μg/ml (0.7 μM)
  Score FGR 005: 0.0
[12]; 3.13 μg/ml (1.4 μM)
  Score FGR 005: 0.0
[12]; 6.25 μg/ml (2.8 μM)
  Score FGR 005: 1.0
[12]; 12.5 μg/ml (5.6 μM)
  Score FGR 005: 3.0
[12]; 25 μg/ml (11.1 μM)
  Score FGR 005: 4.0
[12]; 50 μg/ml (22.2 μM)
  Score FGR 005: 4.0
[12]; 100 μg/ml (44.4 μM)
  Score FGR 005: 4.0

## CMIII
[1]; value before parentheses
  MIC FMO 001: 18.2 mg/L
[1]; value in parentheses
  MIC FMO 001: 4.6 µM
[2]; value before parentheses
  MIC SSC 002: 24 mg/L
[2]; value in parentheses
  MIC SSC 002: 6 µM
[3]; value before parentheses
  MIC AFL 001: 60 mg/L
[3]; value in parentheses
  MIC AFL 001: 15 µM

## tachyplesin [tachyplesin oxidized]
[6]; 1.56 μg/ml (0.7 μM)
  Score FMO 001: 0.0
[6]; 3.13 μg/ml (1.4 μM)
  Score FMO 001: 0.5
[6]; 6.25 μg/ml (2.8 μM)
  Score FMO 001: 1.0
[6]; 12.5 μg/ml (5.6 μM)
  Score FMO 001: 2.5
[6]; 25 μg/ml (11.1 μM)
  Score FMO 001: 4.0
[6]; 50 μg/ml (22.2 μM)
  Score FMO 001: 4.0
[6]; 100 μg/ml (44.4 μM)
  Score FMO 001: 4.0
[7]; 1.56 μg/ml (0.7 μM)
  Score SSC 002: 0.0
[7]; 3.13 μg/ml (1.4 μM)
  Score SSC 002: 0.0
[7]; 6.25 μg/ml (2.8 μM)
  Score SSC 002: 0.0
[7]; 12.5 μg/ml (5.6 μM)
  Score SSC 002: 4.0
[7]; 25 μg/ml (11.1 μM)
  Score SSC 002: 4.0
[7]; 50 μg/ml (22.2 μM)
  Score SSC 002: 4.0
[7]; 100 μg/ml (44.4 μM)
  Score SSC 002: 4.0
[8]; 1.56 μg/ml (0.7 μM)
  Score SSC ascospores: 0.0
[8]; 3.13 μg/ml (1.4 μM)
  Score SSC ascospores: 0.0
[8]; 6.25 μg/ml (2.8 μM)
  Score SSC ascospores: 3.0
[8]; 12.5 μg/ml (5.6 μM)
  Score SSC ascospores: 4.0
[8]; 25 μg/ml (11.1 μM)
  Score SSC ascospores: 4.0
[8]; 50 μg/ml (22.2 μM)
  Score SSC ascospores: 4.0
[8]; 100 μg/ml (44.4 μM)
  Score SSC ascospores: 4.0
[9]; 1.56 μg/ml (0.7 μM)
  Score AFL 001: 0.0
[9]; 3.13 μg/ml (1.4 μM)
  Score AFL 001: 0.0
[9]; 6.25 μg/ml (2.8 μM)
  Score AFL 001: 1.0
[9]; 12.5 μg/ml (5.6 μM)
  Score AFL 001: 1.5
[9]; 25 μg/ml (11.1 μM)
  Score AFL 001: 2.75
[9]; 50 μg/ml (22.2 μM)
  Score AFL 001: 3.75
[9]; 100 μg/ml (44.4 μM)
  Score AFL 001: 3.75
[10]
  Score (antifungal activity), Sclerotinia trifoliorum, isolate 1: 4.0
[11]; 1.56 μg/ml (0.7 μM)
  Score FGR 008: 0.0
[11]; 3.13 μg/ml (1.4 μM)
  Score FGR 008: 0.0
[11]; 6.25 μg/ml (2.8 μM)
  Score FGR 008: 2.0
[11]; 12.5 μg/ml (5.6 μM)
  Score FGR 008: 4.0
[11]; 25 μg/ml (11.1 μM)
  Score FGR 008: 4.0
[11]; 50 μg/ml (22.2 μM)
  Score FGR 008: 4.0
[11]; 100 μg/ml (44.4 μM)
  Score FGR 008: 4.0
[12]
  Score (antifungal activity), Fusarium graminearum, isolate 5: 4.0
[12]; 1.56 μg/ml (0.7 μM)
  Score FGR 005: 0.0
[12]; 3.13 μg/ml (1.4 μM)
  Score FGR 005: 0.0
[12]; 6.25 μg/ml (2.8 μM)
  Score FGR 005: 2.25
[12]; 12.5 μg/ml (5.6 μM)
  Score FGR 005: 3.5
[12]; 25 μg/ml (11.1 μM)
  Score FGR 005: 4.0
[12]; 50 μg/ml (22.2 μM)
  Score FGR 005: 4.0
[12]; 100 μg/ml (44.4 μM)
  Score FGR 005: 4.0

## CC[C@H](C)[C@@H]1NC(=O)CNC(=O)[C@H](CCCNC(=N)N)NC(=O)[C@H](Cc2ccc(O)cc2)NC(=O)[C@@H]2CSSC[C@H](NC1=O)C(=O)N[C@@H](Cc1ccc(O)cc1)C(=O)N[C@@H](CCCNC(=N)N)C(=O)N[C@@H](CCCNC(=N)N)C(=O)N[C@H](C(=O)N[C@@H](CCCNC(=N)N)C(=O)O)CSSC[C@H](NC(=O)[C@H](Cc1c[nH]c3ccccc13)NC(=O)[C@@H](N)CCCCN)C(=O)N[C@@H](Cc1ccccc1)C(=O)N[C@@H](CCCNC(=N)N)C(=O)N[C@@H](C(C)C)C(=O)N2 [tachyplesin] (H-KWCFRVCYRGICYRRCR-OH; disulfide 3-16, 7-12; N-terminus assumed)
[1]; value before parentheses
  MIC FMO 001: 6.25 mg/L
[1]; value in parentheses
  MIC FMO 001: 2.8 µM
[2]; value before parentheses
  MIC SSC 002: 12.5 mg/L
[2]; value in parentheses
  MIC SSC 002: 5.6 µM
[3]; value before parentheses
  MIC AFL 001: 6.25 mg/L
[3]; value in parentheses
  MIC AFL 001: 2.8 µM
[3]
  Dependence of MIC on buffer pH, AFL 001: None of the antimicrobials showed a discernible trend or optimum
[5]
  Dependence of MIC on buffer pH, FGR 008: None of the antimicrobials showed a discernible trend or optimum
